Laboratory results: patent US6958357B2, “Substituted benzimidazoles, processes for their preparation, their use as medicaments, and medicaments comprising them” (Aventis Pharma Deutschland GmbH, priority 2000, dated 2005)
“And” between values parts separate entries of the source, which are not always exact repeats. Equal values may be shown once. Where a name gives a salt, the structure may show the parent alone.

Experiments:
rNHE3 = rNHE3 (Rattus norvegicus, UniProt P26433); experiment: recovery of the intracellular pH (pHi) after acidification, BCECF fluorescence, NHE inhibition; format: cell-based; details: pH recovery recorded for three minutes in the case of NHE3; bicarbonate-free conditions
Procedure: In this test, the recovery of the intracellular pH (pHi) after an acidification was determined which commences with functional NHE even under bicarbonate-free conditions. For this, the pHi was determined using the pH-sensitive fluorescent dye BCECF (Calbiochem, the precursor BCECF-AM was employed). The cells were first loaded with BCECF. The BCECF fluorescence was determined in a “Ratio Fluorescence Spectrometer” (Photon Technology International, South Brunswick, N.J., USA) at excitation wavelengths of 505 and 440 nm and an emission wavelength of 535 nm and converted into the pHi by means of calibration curves. The cells were incubated in NH4Cl buffer (pH 7.4) even in the case of BCECF loading (NH4Cl buffer: 115 mM NaCl, 20 mM NH4Cl, 5 mM KCl, 1 mM CaCl2, 1 mM MgSO4, 20 mM Hepes, 5 mM glucose, 1 mg/ml of BSA; a pH of 7.4 is set using 1 M NaOH). The intracellular acidification was induced by addition of 975 μl of an NH4Cl-free buffer (see below) to 25 μl aliquots of the cells incubated in NH4Cl buffer. The subsequent rate of pH recovery was recorded for two minutes in the case of NHE1, for five minutes in the case of NHE2, and for three minutes in the case of NHE3. For the calculation of the inhibitory potency of the substances tested, the cells were first investigated in buffers in which a complete pH recovery or no pH recovery at all took place. For the complete pH recovery (100%), the cells were incubated in Na+-containing buffer (133.8 mM NaCl, 4.7 mM KCl, 1.25 mM CaCl2, 1.25 mM MgCl2, 0.97 mM […], 0.23 mM […], 5 mM Hepes, 5 mM glucose; a pH of 7.0 is set using 1 M NaOH). For the determination of the 0% value, the cells were incubated in an Na+-free buffer (133.8 mM choline chloride, 4.7 mM KCl, 1.25 mM CaCl2, 1.25 mM MgCl2, 0.97 mM K2HPO4, 0.23 mM KH2PO4, 5 mM Hepes, 5 mM glucose; a pH of 7.0 is set using 1 M NaOH). The substances to be tested were applied in the Na+-containing buffer. The recovery of the intracellular pH at each tested concentration of a substance was expressed in percent of the maximum recovery. The IC value of the respective substance for the individual NHE subtypes was calculated from the percentage values of the pH recovery by means of the program Sigma-Plot.

rNHE3, sequence (P26433 29-831): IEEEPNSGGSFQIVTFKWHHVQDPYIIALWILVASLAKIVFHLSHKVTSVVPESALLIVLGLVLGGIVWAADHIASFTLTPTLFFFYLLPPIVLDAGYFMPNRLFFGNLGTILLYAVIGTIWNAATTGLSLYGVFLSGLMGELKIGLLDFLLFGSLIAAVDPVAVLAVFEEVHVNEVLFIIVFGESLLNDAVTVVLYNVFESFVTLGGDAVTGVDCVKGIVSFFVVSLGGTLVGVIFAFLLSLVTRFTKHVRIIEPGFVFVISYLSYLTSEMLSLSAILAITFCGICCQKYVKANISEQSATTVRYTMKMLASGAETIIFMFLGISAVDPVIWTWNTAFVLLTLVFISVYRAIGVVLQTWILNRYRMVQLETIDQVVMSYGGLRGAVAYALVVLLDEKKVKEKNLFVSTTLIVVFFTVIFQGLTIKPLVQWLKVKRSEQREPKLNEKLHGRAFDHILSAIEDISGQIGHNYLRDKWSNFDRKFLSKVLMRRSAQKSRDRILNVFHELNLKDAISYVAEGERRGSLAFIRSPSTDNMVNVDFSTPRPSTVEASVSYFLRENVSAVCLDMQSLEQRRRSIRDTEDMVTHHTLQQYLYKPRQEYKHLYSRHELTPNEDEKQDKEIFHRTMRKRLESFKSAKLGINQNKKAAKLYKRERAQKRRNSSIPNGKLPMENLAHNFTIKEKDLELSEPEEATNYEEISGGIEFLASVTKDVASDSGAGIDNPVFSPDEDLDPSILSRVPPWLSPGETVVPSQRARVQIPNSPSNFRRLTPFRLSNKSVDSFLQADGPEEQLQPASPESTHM

| Compound | melting point | IC50 (rNHE3) [µM] |
| --- | --- | --- |
| FC(F)(F)c1cccc(Cl)c1Nc1nc2ccccc2[nH]1 (as salt: hydrochloride) [Example 11, 2-(2-Trifluoromethyl-6-chlorophenylamino)benzimidazole hydrochloride] | 255 to 288 °C | – |
| Cl.Fc1cccc2nc(Nc3c(Cl)cccc3Cl)[nH]c12 [Example 10, 2-(2,6-Dichlorophenylamino)-4-fluorobenzimidazole hydrochloride] | 268 to 296 °C | 3.2 |
| Cc1ccccc1Nc1nc2ccccc2[nH]1 [Example 19, (1H-Benzimidazol-2-yl)-o-tolylamine hydrochloride] | – | 3.5 |
| Oc1ccc2[nH]c(Nc3c(Cl)cccc3Cl)nc2c1 [Example 13, 2-(2,6-Dichlorophenylamino)-5-hydroxybenzimidazole hydrobromide] | – | 1.1 |
| Cc1cccc(Cl)c1Nc1nc2ccccc2[nH]1 [Example 4, (1H-Benzimidazol-2-yl)-(2-chloro-6-methylphenyl)amine hydrochloride] | – | 0.49 |
| FC(F)(F)c1ccccc1Nc1nc2ccccc2[nH]1 [Example 17, (1H-Benzimidazol-2-yl)-(2-trifluoromethylphenyl)amine trifluoroacetate] | – | 3.5 |
| Fc1ccc2[nH]c(Nc3c(Cl)cccc3Cl)nc2c1 [Example 9, 2-(2,6-Dichlorophenylamino)-5-fluorobenzimidazole hydrochloride] | – | 1 |
| Fc1cccc(Cl)c1Nc1nc2ccccc2[nH]1 [Example 7, (1H-Benzimidazol-2-yl)-(2-chloro-6-fluorophenyl)amine hydrochloride] | – | 0.52 |
| FC(F)(F)c1cccc(Cl)c1Nc1nc2ccccc2[nH]1 [Example 11, 2-(2-Trifluoromethyl-6-chlorophenylamino)benzimidazole hydrochloride] | – | 0.83 |
| Fc1cc2nc(Nc3c(Cl)cccc3Cl)[nH]c2cc1F [Example 5, (2,6-Dichlorophenyl)-(5,6-difluoro-1H-benzimidazol-2-yl)amine hydrochloride] | – | 0.78 |
| Cl.Oc1cccc2[nH]c(Nc3c(Cl)cccc3Cl)nc12 [Example 2, 2-(2,6-Dichlorophenylamino)-1H-benzimidazol-4-ol Hydrochloride] | 333 to 335 °C | 0.47 |
| Fc1c(F)c(F)c2[nH]c(Nc3c(Cl)cccc3Cl)nc2c1F (as salt: hydrochloride) [Example 14, 2-(2,6-Dichlorophenylamino)-4,5,6,7-tetrafluorobenzimidazole hydrochloride] | 220 to 222 °C | – |
| Cl.Fc1cc(F)c2[nH]c(Nc3c(Cl)cccc3Cl)nc2c1 [Example 15, 2-(2,6-Dichlorophenylamino)-4,6-difluorobenzimidazole hydrochloride] | 310 to 314 °C | 1.6 |
| Cc1cccc2[nH]c(Nc3c(Cl)cccc3Cl)nc12 [Example 6, (2,6-Dichlorophenyl)-(4-methyl-1H-benzimidazol-2-yl)amine trifluoracetate] | – | 0.39 |
| Brc1ccccc1Nc1nc2ccccc2[nH]1 [Example 18, (1H-Benzimidazol-2-yl)-(2-bromophenyl)amine trifluoroacetate] | – | 1.2 |
| Clc1cccc(Cl)c1Nc1nc2ccccc2[nH]1 [Example 1, (1H-Benzimidazol-2-yl)-(2,6-dichlorophenyl)amine hydrochloride] | – | 0.53 |
| Fc1ccc2[nH]c(Nc3c(Cl)cccc3Cl)nc2c1 (as salt: hydrochloride) [Example 9, 2-(2,6-Dichlorophenylamino)-5-fluorobenzimidazole hydrochloride] | 294 to 296 °C | – |
| Cc1cccc(C)c1Nc1nc2ccccc2[nH]1 [Example 3, (1H-Benzimidazol-2-yl)-(2,6-dimethylphenyl)amine trifluoracetate] | – | 0.64 |
| Clc1ccccc1Nc1nc2ccccc2[nH]1 [Example 16, (1H-Benzimidazol-2-yl)-(2-chlorophenyl)amine trifluoroacetate] | – | 0.63 |
| Brc1cccc(Br)c1Nc1nc2ccccc2[nH]1 [Example 8, (1H-Benzimidazol-2-yl)-(2,6-dibromophenyl)amine trifluoroacetate] | – | 0.65 |
| Fc1c(F)c(F)c2[nH]c(Nc3c(Cl)cccc3Cl)nc2c1F [Example 14, 2-(2,6-Dichlorophenylamino)-4,5,6,7-tetrafluorobenzimidazole hydrochloride] | – | 5.6 |
| Cl.Fc1ccc2nc(Nc3c(Cl)cccc3Cl)[nH]c2c1F [Example 12, 2-(2,6-Dichlorophenylamino)-4,5-difluorobenzimidazole hydrochloride] | 232 to 234 °C and 228 to 230 °C | 2.9 |
| Oc1ccc2[nH]c(Nc3c(Cl)cccc3Cl)nc2c1 (as salt: hydrobromid) [Example 13, 2-(2,6-Dichlorophenylamino)-5-hydroxybenzimidazole hydrobromide] | 265 to 269 °C | – |
